{"source": "patent US20200291355A1", "about": "“ENGINEERED ERYTHROID CELLS INCLUDING LOADABLE ANTIGEN-PRESENTING POLYPEPTIDES AND METHODS OF USE” (Rubius Therapeutics, Inc., priority 2019, published 2020)", "system": "wt HLA-A2 or ds HLA-A2 antigen-presenting polypeptide (HLA*02:01)", "test": "Binding kinetics of TAMRA-labeled HPV E7 antigenic polypeptides onto engineered enucleated erythroid cells (flow cytometry)", "set-up": "species or system human", "settings": "10 ng/mL, about 90 minutes, 4° C., RT and 37° C.", "description": "To examine the antigenic polypeptide loading kinetics of loadable antigen-presenting polypeptides, the following experiment was performed."}
{"sequence": "YMLDLQPKT [HPV E7-E18K]", "values": [{"measurement": "Loading rate of fluorescent peptide compared with HPV E7-GGK", "setting": "onto cells including ds HLA-A2", "result": "more rapidly"}, {"measurement": "Loading rate of fluorescent peptide compared with HPV E7-GGK", "setting": "onto cells including wt HLA-A2", "result": "more rapidly"}]}
